Tested on: Monosodium Iodoacetate (MIA) Osteoarthritis in Rats
Assay: MIA-induced osteoarthritis in rats, oral treatment, histological evaluation (modified Mankin score)
Assay type: in vivo
Conditions: oral every 24 hours day 3-20, conjugate of Example 2 (35% mol/mol) 88.5 mg/kg, mixture 16.2 mg/kg carnosine + 72.3 mg/kg HA, naproxen 10 mg/kg, day 21, versus MIA-control, FIG. 7
Description: OA was induced in the posterior knee joints of the rats being tested, by the intra-articular injection of MIA: 25 μl of saline containing 1 mg/kg of MIA were injected into the joint (knee) of the right paw of each animal (under treatment) through the infrapatal ligament, whereas the left joint received an equal volume of saline 0.9% (Sagar D R et al, Ann. Rheum. Dis., 2013, 73: 1558-1565).
Male Sprague-Dawley rats, of about 230 g each, were used, 20 rats per group.
Group 1: MIA-control: the animals were treated by MIA induction and subsequently with distilled water administered orally every 24 hours from the 3rd day after MIA until the 20th day, end of the experimentation.
Group 2: MIA+HA/carnosine conjugate: the animals were treated by MIA induction and subsequently with the above-mentioned conjugate every 24 hours from the 3rd day after MIA until the 20th day. The conjugate used for the experimentation was prepared according to Example 2, it was then derivatized at 35% mol/mol, the dose, administered orally, was equal to 88.5 mg/kg of conjugate (16.2 mg of carnosine and 72.3 mg of HA).
Group 3: MIA+HA/carnosine mixture: the animals were treated by MIA induction and subsequently with HA/carnosine every 24 hours starting from the 3rd day after MIA up to the 20th day. […]

## COc1ccc2cc([C@H](C)C(=O)O)ccc2c1 [naproxen]
  Histological evaluation (modified Mankin Histological score 0-12; histological damage and cartilage degeneration): totally comparable to the effect elicited by naproxen

Reference: patent US20220031797A1, “PHARMACEUTICAL COMPOSITIONS CONTAINING HYALURONIC ACID AND CARNOSINE AND RELATIVE USE” (FIDIA FARMACEUTICI S.P.A., priority 2017, published 2022)
